Measured values reported in patent US10912818B2, “Use of microorganisms for the prevention and treatment of intestinal diseases” (Ludwig Stocker Hofpfisterei GmbH, priority 2013, dated 2021).
Entries after “also recorded” stand apart in the source; their conditions may differ.

Legend:
[1] = tested on: corpus circular muscle preparations; assay: Motility: contractile force of corpus circular muscle preparations in organ bath; type: cell-based, guinea pig
[2] = tested on: distal colon mucosa/submucosa preparations; assay: Ussing chamber: short circuit current (chloride ion secretion) across colonic mucosa/submucosa preparations; type: cell-based, guinea pig

| SMILES | Effect of TTX pre-treatment on muscle contraction stimulated by ACH and extracts [1] | Effect of atropine pre-treatment on muscle contraction stimulated by ACH and extracts [1] | Effect of atropine applied mucosally on secretion stimulated by ACH applied serosally [2] | Effect of atropine applied on mucosal side on secretion stimulated from the mucosal side [2] | Effect of atropine applied on serosal side on secretion stimulated from the mucosal side [2] | Effect of atropine pre-treatment on secretion stimulated by ACH and extracts [2] |
| --- | --- | --- | --- | --- | --- | --- |
| NC1=N[C@H](O)[C@H]2[C@H]3O[C@]4(O)O[C@@H]([C@@H](O)[C@@]2(N1)[C@@H]4O)[C@]3(O)CO [TTX, Tetrodotoxin] | no significant effect | – | – | – | – | – |
| CN1[C@@H]2CC[C@H]1C[C@@H](OC(=O)C(CO)c1ccccc1)C2 (stereo partly drawn) [atropine] | – | completely abrogated stimulation; also recorded: completely abolished | secretion was inhibited | only partially inhibiting ACH activity; also recorded: not mucosally | significantly inhibited; also recorded: completely abrogated secretion | completely abolished the response; also recorded: completely abrogated secretion stimulation |
